Tests used:
EMT-6 tumor cells = test: Radiosensitization effect on tumor transplanted in animal (ER in vivo); parameters: species or system Balb/c mouse; details: in a low concentration
Procedure: To both thighs of male Balb/c mouse (8 weeks; 4 mice in a group), 10^5 of EMT-6 tumor cells were subcutaneously inoculated. After the diameter of the tumor reached about 1 cm, a solution of a compound to be examined in saline was intraperitonealy administered (200 mg/kg). After 40 minutes from the administration, X-ray was irradiated at a dose rate of 450 rad/min. for 5 minutes and then the mouse was sacrificed.
After the mouse was systemically sterilized, the tumor was taken out and the tissue was homogenated. Then, 22 ml of trypsin was added to the homogenate and stirred for 50 minutes at 37° C. The number of cells in the supernatant was counted. A predetermined amount of the cells was introduced in a plastic plate having a diameter of about 5 cm. To the plate, 5 ml of medium was added and cultured in a CO2 incubator. The plates containing the irradiated and unirradiated cells were removed from the incubator after 9 days and 10 days incubation, respectively. The cells were fixed by methanol and stained by Giemsa stain. Then, the number of colonies formed were counted.
The survival rate was calculated with using the unirradiated cells as control.

hypoxic cells [1] = details: versus no Misonidazole; cited from earlier work
hypoxic cells [2] = details: administered in human beings; cited from earlier work

For `O=C(NCCO)C(F)(F)Cn1cnc([N+](=O)[O-])n1` [(3), 3-(3'-nitro-1',2',4'-triazol-1'-yl)-2,2-difluoropropionic acid hydroxyethylamide], the LD50 (in vivo) was 1600 mg/kg.

With `COCCNC(=O)C(F)(F)Cn1cnc([N+](=O)[O-])n1` [(2), 3-(3'-nitro-1',2',4'-triazol-1'-yl)-2,2-difluoropropionic acid methoxyethylamide] the LD50 (in vivo) was > 3000 mg/kg.

Work on `CC(O)CNC(=O)C(F)(F)Cn1cnc([N+](=O)[O-])n1` (stereo not drawn) [(60), 3-(3'-nitro-1', 2', 4'-triazol-1'-yl)-2,2-difluoropropionic acid isopropanolamide] yielded an LD50 (in vivo) of 1200 mg/kg.

In the case of `O=[N+]([O-])c1ncn(CC(F)COCC(O)CO)n1` (stereo not drawn) [(65), 1-(2'-fluoro-4'-oxo-6',7'-dihydroxyheptyl)-3-nitro-1,2,4-triazole], the LD50 (in vivo) was 1600 mg/kg.

`CC(C)NC(=O)C(F)(F)Cn1cnc([N+](=O)[O-])n1` [(53), 3-(3'-nitro-1', 2', 4'-triazol-1'-yl)-2,2-difluoropropionic acid isopropylamide] gave an LD50 (in vivo) of 600 mg/kg.

For `O=[N+]([O-])c1ncn(CC(O)CF)n1` (stereo not drawn) [(13), 1-(3'-fluoro-2'-hydroxypropyl)-3-nitro-1,2,4-triazole], the “ER in vivo in comparison with comparative compounds (1) and (2)” value (EMT-6 tumor cells) was “comparable” and the LD50 (in vivo) was 700 mg/kg.

For `COCC(F)Cn1cnc([N+](=O)[O-])n1` (stereo not drawn) [(7), 1-(2'-fluoro-3'-methoxypropyl)-3-nitro-1,2,4-triazole], the LD50 (in vivo) was > 2000 mg/kg.

In the case of `COCC(O)Cn1ccnc1[N+](=O)[O-]` (stereo not drawn) [Misonidazole, 1-(2-Nitro-1-imidazolyl)-3-methoxy-2-propanol], the “effectiveness as hypoxic cell sensitizer” value (hypoxic cells [1]) is listed as “about twice as effective as when no Misonidazole is used” and the “sensitizing effect in human beings” value (hypoxic cells [2]) is listed as “No sensitizing effect was confirmed”.

`NC(=O)CCNC(=O)C(F)(F)Cn1cnc([N+](=O)[O-])n1` [(62), 1-(3'-nitro-1',2',4'-triazol-1'-yl)-2,2-difluoropropionic acid 3-alanylamide] gave an LD50 (in vivo) of 1500 mg/kg.

With `NC(=O)C(F)(F)Cn1cnc([N+](=O)[O-])n1` [(43), 3-(3'-nitro-1',2', 4'-triazol-1'-yl)-2,2-difluoropropionamide] the LD50 (in vivo) was 700 mg/kg.

Reference: patent publication US4927941A, “Fluorine-containing nitroazole derivatives and radiosensitizer comprising the same” (Yasunori Nishijima & Daikin Industries Ltd., priority 1987, dated 1990)
